The text below walks through data of publication PMC10108266, “Pharmacokinetic characteristics of golidocitinib, a highly selective JAK1 inhibitor, in healthy adult participants” (Frontiers in Immunology, 2023).

Series [1] can be described thus: JACKPOT3 SAD urinary PK (100 mg). Particulars: single dose 100 mg. Format: in vivo, human. The procedure: After single oral administration, serial blood samples were obtained on Day 1 at pre-dose, and at 0.5, 1, 1.5, 2, 3, 4, 6, 8, 12, 24 (Day 2), 48 (Day 3), 72 (Day 4), 120 (Day 6), 168 (Day 8) and 216 (Day 10) hours post-dose for plasma PK analysis. Urine samples were collected during the collection intervals of 0-4, 4-10, 10-24, 24-48, 48-72, 72-96, 96-120, 120-144, and 144-168 hours following a single oral dose of 100 mg for urine PK analysis. Validated LC/MS methods were used for the determination of golidocitinib in human plasma and urine by Frontage Laboratories Inc. (Shanghai). This method was cross validated by Frontage Laboratories Inc. (New Jersey, USA) and met the acceptance criteria.
The mean (SD) amount of golidocitinib excreted in the urine over the collection period and renal clearance are presented in Table 2B . The average amount of golidocitinib excreted in the urine increased in an approximately dose proportional manner from 25 mg to 100 mg. […] The renal excretion fraction (Fe0-t) is helpful to compare the renal clearance (CLr) with total clearance (CLtotal) and determine the contribution of renal clearance in the drug elimination. It was calculated by the equation Fe0-t = CLr/CLtotal. The CL/F values were obtained from the two Phase I studies after the oral administration. Since the pharmacokinetics of golidocitinib after intravenous injection was not studied, the bioavailability value (F) was calculated by physiologically based pharmacokinetic (PBPK) model that incorporated compound specific information and independent prior knowledge on the physiology and biology at the organism.

The target in series [2] is P-glycoprotein (P-gp) (Homo sapiens, UniProt P08183). Briefly: In vitro P-gp substrate experiments. Format: in vitro ADME. Particulars: active transport saturable at high concentrations.
Details of series [3]: method as in JACKPOT5, NCT04225208. As to conditions: concluded from metabolic profile in human, radiolabeled mass balance study in 8 healthy participants ref JACKPOT5, NCT04225208; cited from earlier work.

Chain of P-glycoprotein (P-gp) (P08183 whole entry): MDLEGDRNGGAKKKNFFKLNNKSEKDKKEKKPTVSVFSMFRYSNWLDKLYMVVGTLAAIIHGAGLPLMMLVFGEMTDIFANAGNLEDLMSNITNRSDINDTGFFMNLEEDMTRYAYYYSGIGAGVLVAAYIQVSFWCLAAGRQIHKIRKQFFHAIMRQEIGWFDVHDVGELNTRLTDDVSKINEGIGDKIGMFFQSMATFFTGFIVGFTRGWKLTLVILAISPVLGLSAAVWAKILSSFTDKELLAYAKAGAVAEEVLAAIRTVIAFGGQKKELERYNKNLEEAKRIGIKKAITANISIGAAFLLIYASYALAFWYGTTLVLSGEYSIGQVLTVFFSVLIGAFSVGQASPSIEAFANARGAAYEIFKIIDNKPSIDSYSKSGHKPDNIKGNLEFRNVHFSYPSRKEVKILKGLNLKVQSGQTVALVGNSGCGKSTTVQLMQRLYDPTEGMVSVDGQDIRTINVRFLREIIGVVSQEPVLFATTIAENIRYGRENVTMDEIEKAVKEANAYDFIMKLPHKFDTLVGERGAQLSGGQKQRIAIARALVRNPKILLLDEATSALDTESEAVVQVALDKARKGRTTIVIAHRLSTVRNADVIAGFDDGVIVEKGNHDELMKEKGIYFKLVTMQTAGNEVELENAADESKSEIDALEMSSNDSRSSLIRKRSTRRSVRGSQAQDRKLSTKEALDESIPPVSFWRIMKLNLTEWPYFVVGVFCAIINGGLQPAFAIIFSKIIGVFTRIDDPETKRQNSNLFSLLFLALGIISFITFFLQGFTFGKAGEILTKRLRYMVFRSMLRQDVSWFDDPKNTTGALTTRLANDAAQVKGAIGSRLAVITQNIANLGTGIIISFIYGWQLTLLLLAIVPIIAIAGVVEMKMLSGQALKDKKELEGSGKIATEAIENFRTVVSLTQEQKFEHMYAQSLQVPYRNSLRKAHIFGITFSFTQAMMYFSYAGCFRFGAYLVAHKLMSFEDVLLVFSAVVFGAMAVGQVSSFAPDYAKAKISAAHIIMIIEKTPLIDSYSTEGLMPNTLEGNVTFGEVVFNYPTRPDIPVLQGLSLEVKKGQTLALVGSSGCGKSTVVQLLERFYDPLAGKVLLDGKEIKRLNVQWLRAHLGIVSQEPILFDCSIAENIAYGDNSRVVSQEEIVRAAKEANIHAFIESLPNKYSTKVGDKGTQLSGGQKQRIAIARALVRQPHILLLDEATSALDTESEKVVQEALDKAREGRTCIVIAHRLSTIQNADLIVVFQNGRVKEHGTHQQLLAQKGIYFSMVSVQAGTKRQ

Regarding `COc1nn(C)cc1Nc1nccc(-c2c[nH]c3c(NC(=O)[C@@H](C)N4CCN(C)CC4)cccc23)n1` [golidocitinib, (2R)-N-[3-[2-[(3-Methoxy-1-methyl-pyrazol-4-yl)amino]pyrimidin-4-yl]-1H-indol-7-yl]-2-(4-methylpiperazin-1-yl)propenamide], in series [1] (human, urine and plasma, oral, Ae0-t/AUC0-t, mean (SD)), the CL renal was 67.8 mL/min. In addition, the CLtotal in series [1] (CL/F * F (0.7 from PBPK model)) worked out at 15.0 L/h. The Fe0-t in series [1] (CLr/CLtotal) is given as 27.2%. Besides, the Ae0-t in series [1] (urine 0-168 hour, mean (SD)) is given as 19.5 (6.22) mg. Besides, in series [2], the P-gp substrate status entry is “P-glycoprotein (P-gp) substrate”. In addition, the oral bioavailability in series [3] was above 80%.
